Tests used:
[1] = in vivo; cited from earlier work
[2] = Nitrosamine content after frying cured bacon slices streaked with a soya oil solution of the aromatic secondary amine; conditions: 100 ppm
Description: In the case of o-methoxy-N-dodecylaminobenzene samples were tested at 100, 200 and 300 ppm levels. The controls were streaked with oil alone.

[3] = Table III, controls (ppb): Ex 30 76.0 and 60.0, 31 29.0, 32-33 42.5, 34 32.5, 35-39 28.2, 40 17.5, 41 20.0, 42 19.1, 43-44 34.0, 45 23.0, below about 3 ppb is below accurate detection level

Structure (SMILES)	carcinogenic in tests on experimental animals [1]	NITROSAMINES Test [2, 3] [ppb]	further results
CN(C)N=O [dimethylnitrosamine]	carcinogenic		
CCCCCCCCCCCCNc1ccc(OC)cc1OC [Example 45, o,p-Dimethoxy-N-dodecylaminobenzene]		2.5	
CCCCCCCCCCCCNc1ccccc1 [Example 47, N-Dodecylaminobenzene]			NITROSAMINES Test ([2]; Table IV, controls (ppb): Ex 46 34.0, 47 76.0, 48-49 41.0, 50-54 36.2): 16.0 ppb
CCOc1ccc(NC(C)(C)C)cc1 [Example 42, p-Ethoxy-N-t-butylaminobenzene]		2.2	
O=NN1CCCC1 [N-nitrosopyrrolidine]	carcinogenic		

From patent US4076849A, “Control of nitrosamine formation in nitrite cured meat” (Canada Packers Limited, priority 1975, dated 1978)
